Laboratory results as given in PubChem BioAssay (NCI).
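Briefly, cells in 96-well plates were exposed to five compound concentrations for 48 h, and endpoints were estimated by linear interpolation. At the GI50, growth is halved. The concentration for full growth arrest is given as TGI.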

What was measured:
Assay in all cases: growth of human tumour cells (NCI), 48 h
K-562 leukemia = tested on: K-562 leukemia
MDA-MB-435 = tested on: MDA-MB-435
OVCAR-3 ovarian = tested on: OVCAR-3 ovarian
SF-268 CNS = tested on: SF-268 CNS
SW-620 colon = tested on: SW-620 colon
ACHN renal = tested on: ACHN renal
A549 NSCLC = tested on: A549 NSCLC
T-47D breast = tested on: T-47D breast
UO-31 renal = tested on: UO-31 renal
MDA-MB-231 breast = tested on: MDA-MB-231 breast

Compound	TGI (K-562 leukemia)	TGI (MDA-MB-435)	TGI (OVCAR-3 ovarian)	TGI (SF-268 CNS)	TGI (SW-620 colon)	TGI (ACHN renal)	TGI (A549 NSCLC)	TGI (T-47D breast)	TGI (UO-31 renal)	TGI (MDA-MB-231 breast)	GI50 (MDA-MB-231 breast)	GI50 (K-562 leukemia)	GI50 (MDA-MB-435)	GI50 (OVCAR-3 ovarian)	GI50 (SF-268 CNS)	GI50 (SW-620 colon)	GI50 (ACHN renal)	GI50 (A549 NSCLC)	GI50 (T-47D breast)	GI50 (UO-31 renal)
COC(=O)C1C(C(=O)OC)N(Cc2ccccc2)C(=O)N1Cc1ccccc1 (configuration not stated)	> 100 µM	> 100 µM	> 100 µM	> 100 µM	> 100 µM	> 100 µM	> 100 µM	> 100 µM	> 100 µM											
O=C1C(Cl)=C(N2CCN(C3=C(Cl)C(=O)c4ccccc4C3=O)CC2)C(=O)c2ccccc21		3.27 µM	3.02 µM	6.1 µM	2.68 µM	3.09 µM	28.1 µM	2.06 µM	3.39 µM	3.34 µM										
C#CCCCCC#Cc1ccccc1C(=O)OC	67.4 µM		> 100 µM	> 100 µM	46.1 µM	> 100 µM	> 100 µM		> 100 µM											
CC1=C(O)C(=O)[C@@H]2O[C@@H]2C1=O	42.7 µM		17.4 µM	30.5 µM	13.4 µM		99 µM		54.1 µM											
Oc1ccc(/C=C/c2cc(O)cc(O)c2)cc1		> 100 µM	> 100 µM	> 100 µM	> 100 µM	> 100 µM	> 100 µM	> 100 µM	> 100 µM	> 100 µM										
COCCOCOc1ccc(OCc2ccccc2)cc1	> 100 µM		> 100 µM	> 100 µM	> 100 µM		> 100 µM		> 100 µM											
C/C(CCOC1CCCCO1)=C(\C)[Si](C)(C)C (configuration not stated)	> 100 µM		> 100 µM	> 100 µM	> 100 µM	> 100 µM	> 100 µM		> 100 µM											
COc1ccc2[nH]c(O)c(/C=c3/cc4c(c(-c5cc(OC)c(OC)c(OC)c5)n3)=Nc3ccccc3-4)c2c1	> 100 µM	> 100 µM	> 100 µM	> 100 µM	> 100 µM	> 100 µM	> 100 µM	> 100 µM	> 100 µM	36.6 µM	982 nM	4.14 µM	3.48 µM	8.48 µM	46.4 µM	4.96 µM	7.47 µM	8.66 µM	28.5 µM	6.62 µM
CCCc1cc(=O)c2c(C)c3[nH]c4ccc(Cl)cc4c3c(C)c2[nH]1		3.11 µM		24.1 µM	4.29 µM	3.71 µM	4.81 µM	3.88 µM	3.34 µM	3.97 µM										
CCN1c2ccccc2-n2c(C)nnc2-c2c1n[nH]c2-c1ccccc1	26 µM	82.9 µM	> 100 µM	> 100 µM	> 100 µM	> 100 µM	> 100 µM	74.7 µM	> 100 µM	71.1 µM										
C=CCN1C(=O)/C(=C/c2ccccc2)N=C1SC1OC(COC(=O)c2ccccc2)C(OC(=O)c2ccccc2)C1OC(=O)c1ccccc1 (configuration not stated)	> 100 µM	> 100 µM	> 100 µM		> 100 µM	> 100 µM				> 100 µM										
